Assay results taken from patent US20090325957A1, “MORPHOLINO PYRIMIDINE DERIVATIVES USEFUL IN THE TREATMENT OF PROLIFERATIVE DISORDERS” (ASTRAZENECA AB, priority 2006, published 2009).
Several values for one entry are separate records, joined by “and”; a condition that tells them apart may be missing. Identical values can stand only once. Like-named read-outs stand apart in the source and are kept apart here.

Biological target: recombinant mTOR (Homo sapiens, UniProt P42345)
Experiment: In vitro mTOR kinase assay (AlphaScreen), Test (a)
Type: biochemical
Experimental: (a) In Vitro mTOR Kinase Assay
The assay used AlphaScreen technology (Gray et al., Analytical Biochemistry, 2003, 313: 234-245) to determine the ability of test compounds to inhibit phosphorylation by recombinant mTOR.
The HEK293 FLAG-tagged mTOR (1362-2549) stable cell line was routinely maintained at 37° C. with 5% CO2 up to a confluency of 70-90% in Dulbecco's modified Eagle's growth medium (DMEM; Invitrogen Limited, Paisley, UK Catalogue No. 41966-029) containing 10% heat-inactivated foetal calf serum (FCS; Sigma, Poole, Dorset, UK, Catalogue No. F0392), 1% L-glutamine (Gibco, Catalogue No. 25030-024) and 2 mg/ml Geneticin (G418 sulfate; Invitrogen Limited, UK Catalogue No. 10131-027). Following expression in the mammalian HEK293 cell line, expressed protein was purified using the FLAG epitope tag using standard purification techniques.
Test compounds were prepared as 10 mM stock solutions in DMSO and diluted into water as required to give a range of final assay concentrations. Aliquots (2 μl) of each compound dilution were placed into a well of a Greiner 384-well low volume (LV) white polystyrene plate (Greiner Bio-one).
Control wells that produced a maximum signal corresponding to maximum enzyme activity were created by using 5% DMSO instead of test compound. […] These assay solutions were incubated for 2 hours at room temperature.
Each reaction was stopped by the addition of 10 μl of a mixture of EDTA (50 mM), bovine serum albumin (BSA; 0.5 mg/mL) and Tris-HCl pH7.4 buffer (50 mM) containing
p70 S6 Kinase (T389) 1A5 Monoclonal Antibody (Cell Signalling Technology, Catalogue No. 9206B) and AlphaScreen Streptavidin donor and Protein A acceptor beads (200 ng; Perkin Elmer, Catalogue No. 6760002B and 6760137R respectively) were added and the assay plates were left for about 20 hours at room temperature in the dark. The resultant signals arising from laser light excitation at 680 nm were read using a Packard Envision instrument.
Phosphorylated biotinylated peptide is formed in situ as a result of mTOR mediated phosphorylation. The phosphorylated biotinylated peptide that is associated with AlphaScreen Streptavidin donor beads forms a complex with the p70 S6 Kinase (T389) 1A5 Monoclonal Antibody that is associated with Alphascreen Protein A acceptor beads. Upon laser light excitation at 680 nm, the donor bead: acceptor bead complex produces a signal that can be measured. Accordingly, the presence of mTOR kinase activity results in an assay signal. In the presence of an mTOR kinase inhibitor, signal strength is reduced.
mTOR enzyme inhibition for a given test compound was expressed as an IC50 value.

[1] = average value, read-out: Test (a) average IC50

Chain of recombinant mTOR (P42345 1362-2549): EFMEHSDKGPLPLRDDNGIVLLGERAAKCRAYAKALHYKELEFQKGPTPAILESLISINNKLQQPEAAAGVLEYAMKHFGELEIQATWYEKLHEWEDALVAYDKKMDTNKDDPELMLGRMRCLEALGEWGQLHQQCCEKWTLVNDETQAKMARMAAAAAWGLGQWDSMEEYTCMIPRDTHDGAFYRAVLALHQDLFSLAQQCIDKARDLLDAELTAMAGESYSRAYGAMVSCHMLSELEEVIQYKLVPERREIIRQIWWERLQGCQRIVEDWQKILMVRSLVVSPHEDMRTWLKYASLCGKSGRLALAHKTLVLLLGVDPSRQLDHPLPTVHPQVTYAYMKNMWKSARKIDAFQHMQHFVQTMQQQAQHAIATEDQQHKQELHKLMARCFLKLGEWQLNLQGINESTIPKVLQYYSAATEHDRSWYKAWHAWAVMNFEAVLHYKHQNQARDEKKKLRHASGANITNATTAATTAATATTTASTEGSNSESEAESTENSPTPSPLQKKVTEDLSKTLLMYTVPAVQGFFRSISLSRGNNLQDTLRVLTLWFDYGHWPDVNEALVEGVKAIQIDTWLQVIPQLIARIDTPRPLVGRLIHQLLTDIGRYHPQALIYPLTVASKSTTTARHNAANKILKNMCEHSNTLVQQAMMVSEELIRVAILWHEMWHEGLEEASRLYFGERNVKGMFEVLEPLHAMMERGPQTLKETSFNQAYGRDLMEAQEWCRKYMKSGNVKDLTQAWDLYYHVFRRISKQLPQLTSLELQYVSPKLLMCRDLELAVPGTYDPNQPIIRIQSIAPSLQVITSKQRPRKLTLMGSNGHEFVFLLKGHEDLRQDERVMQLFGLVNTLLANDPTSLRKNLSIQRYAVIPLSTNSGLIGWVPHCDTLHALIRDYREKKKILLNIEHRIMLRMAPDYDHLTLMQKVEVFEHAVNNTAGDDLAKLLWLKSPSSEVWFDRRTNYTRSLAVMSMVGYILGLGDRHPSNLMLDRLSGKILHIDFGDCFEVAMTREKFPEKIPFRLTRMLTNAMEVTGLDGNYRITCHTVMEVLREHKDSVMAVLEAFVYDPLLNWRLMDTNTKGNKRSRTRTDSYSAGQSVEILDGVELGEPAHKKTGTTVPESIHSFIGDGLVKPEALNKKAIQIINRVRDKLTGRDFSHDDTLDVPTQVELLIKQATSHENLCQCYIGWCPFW

Row | Structure (SMILES) | IC50 [1] | IC50 (single values, measured on three occasions, read-out: IC50 versus mTOR kinase)
1 | C[C@H]1COCCN1c1cc(CS(C)(=O)=O)nc(-c2ccc(CNS(C)(=O)=O)cc2)n1 [Example 5, N-[[4-[4-[(3S)-3-Methylmorpholin-4-yl]-6-(methylsulfonylmethyl)pyrimidin-2-yl]phenyl]methyl]methanesulfonamide] | 4.5 µM | 
2 | CS(=O)(=O)Cc1cc(N2CCOCC2)nc(-c2ccc(NS(=O)(=O)C3CC3)cc2)n1 [Example 3, N-[4-[4-(Methylsulfonylmethyl)-6-morpholin-4-yl-pyrimidin-2-yl]phenyl]cyclopropanesulfonamide] | 0.88 µM | 
3 | C[C@H]1COCCN1c1cc(CS(C)(=O)=O)nc(-c2ccc(NS(C)(=O)=O)cc2)n1 [Example 6, N-[4-[4-[(3S)-3-Methylmorpholin-4-yl]-6-(methylsulfonylmethyl)pyrimidin-2-yl]phenyl]methanesulfonamide] | 1 µM | 
4 | CS(=O)(=O)Cc1cc(N2CCOCC2)nc(-c2ccc(NS(=O)(=O)Cc3ccc(F)cc3)cc2)n1 [Example 3d, 1-(4-fluorophenyl)-N-[4-[4-(methylsulfonylmethyl)-6-morpholin-4-yl-pyrimidin-2-yl]phenyl]methanesulfonamide] | 7.1 µM | 
5 | CS(=O)(=O)Cc1cc(N2CCOCC2)nc(-c2ccc(CNS(C)(=O)=O)cc2)n1 [Example 2, N-[[4-[4-(Methylsulfonylmethyl)-6-morpholin-4-yl-pyrimidin-2-yl]phenyl]methyl]methanesulfonamide] | 6.8 µM | 
6 | CS(=O)(=O)Cc1cc(N2CCOCC2)nc(-c2ccc(NS(C)(=O)=O)cc2)n1 [Example 4, N-[4-[4-(Methylsulfonylmethyl)-6-morpholin-4-yl-pyrimidin-2-yl]phenyl]methanesulfonamide] | 2.6 µM | 3.32 µM and 2.49 µM and 2.25 µM
7 | CS(=O)(=O)Cc1cc(N2CCOCC2)nc(-c2ccc(NS(C)(=O)=O)c(CO)c2)n1 [Example 1, N-[2-(Hydroxymethyl)-4-[4-(methylsulfonylmethyl)-6-morpholin-4-yl-pyrimidin-2-yl]phenyl]methanesulfonamide] | 5 µM | 
8 | CCCS(=O)(=O)Nc1ccc(-c2nc(CS(C)(=O)=O)cc(N3CCOCC3)n2)cc1 [Example 3b, N-[4-[4-(methylsulfonylmethyl)-6-morpholin-4-yl-pyrimidin-2-yl]phenyl]propane-1-sulfonamide] | 4 µM | 
9 | CCS(=O)(=O)Nc1ccc(-c2nc(CS(C)(=O)=O)cc(N3CCOCC3)n2)cc1 [Example 3a, N-[4-[4-(methylsulfonylmethyl)-6-morpholin-4-yl-pyrimidin-2-yl]phenyl]ethanesulfonamide] | 1.4 µM | 
10 | CCCCS(=O)(=O)Nc1ccc(-c2nc(CS(C)(=O)=O)cc(N3CCOCC3)n2)cc1 [Example 3c, N-[4-[4-(methylsulfonylmethyl)-6-morpholin-4-yl-pyrimidin-2-yl]phenyl]butane-1-sulfonamide] | 6 µM | 
